Measured values: patent US12440433B2, “Brightening cosmetic composition comprising sodium pyruvate as active ingredient” (LG HOUSEHOLD & HEALTH CARE LTD., priority 2020, dated 2025)

Tested on: B16F10 cells
Experiment: Melanogenesis inhibitory efficiency test (melanin amount in α-MSH-stimulated B16F10 cells)
Type: cell-based
Conditions: for Melanin amount (%) / Melanogenesis inhibitory efficiency (symbol): 10 nM α-MSH; for Melanin amount (%) / Melanogenesis inhibitory efficiency / Melanogenesis inhibitory efficiency (symbol): 48 hours; for Melanin amount (%): absorbance at 405 nm, ingredient concentrations (wt %) per Table 1; for Melanogenesis inhibitory efficiency: (Melanin amount upon no treatment − upon treatment)/(upon no treatment) × 100, 10 nM α-MSH; for melanogenesis inhibitory effect (in words): urea or hydroxyethyl urea used alone; for Melanogenesis inhibitory efficiency (symbol): symbol for no effect
Method: In order to confirm melanogenesis inhibitory efficacy caused by sodium pyruvate, first, B16F10 cells were dispensed into a 6-well plate at 1×10^5 cells/well and cultured in a DMEM medium containing 10% FBS and 1% penicillin/streptomycin under conditions of 37° C. and 5% CO2 for 24 hours. […] The resulting cells were harvested, added to 100 μl of a lysis buffer (1N NaOH, 10% DMSO), and then allowed to react at 90° C. for 20 minutes, and melanin amounts were measured at 405 nm (EPOCH, Biotek). The melanin amount measurement results are as follows.

Row | SMILES | Melanin amount (%) | Melanogenesis inhibitory efficiency | melanogenesis inhibitory effect (in words) | Melanogenesis inhibitory efficiency (symbol)
1 | CC(=O)C(=O)[O-].[Na+] [Comparative Example 11, sodium pyruvate] | 64% | 36% | – | –
2 | NC(=O)NCCO [compound 2, hydroxyethyl urea] | – | – | a melanogenesis inhibitory effect was not shown | –
3 | NC(=O)NCCO [compound 3, hydroxyethyl urea] | 100% | – | – | *** (100 or more has no effect)
4 | NC(N)=O [compound 4, urea] | 100% | – | a melanogenesis inhibitory effect was not shown | *** (100 or more has no effect)
5 | CC(=O)C(=O)[O-].[Na+] [compound 8, sodium pyruvate] | 92% | 8% | – | –
6 | CC(=O)C(=O)[O-].[Na+] [compound 9, sodium pyruvate] | 82% | 18% | – | –
7 | CC(=O)C(=O)[O-].[Na+] [compound 10, sodium pyruvate] | 77% | 23% | – | –
